# In patent US10682320B2, “Method for inhibiting osteoclast development” (West Virginia University, priority 2012, dated 2020):
# Assays:
# Type in all cases: cell-based
# CRAC channel [1] = target: T1, CRAC channel (Homo sapiens, UniProt Q13586); test: CRAC channel activity by Fura-2 fluorescence in Jurkat cells after thapsigargin; set-up: endogenous in cells; host or cells: Jurkat cells; details: 100 uM, 10 minutes before thapsigargin
# Procedure: Ratiometric imaging of intracellular Ca^2+ using fura-2 was as described (see, Zhou et al., 2009 above). Briefly, cells on coverslips, in cation safe solution (107 mM NaCl, 7.2 mM KCl, 1.2 mM MgCl2, 11.5 mM glucose, 20 mM HEPES-NaOH, pH 7.2) were loaded with fura-2 acetoxymethyl ester (2 μM) for 30 min at 24° C. Cells were washed and fluorescent probe was allowed to de-esterify for 30 min. From signal remaining after saponin permeabilization, ˜85% of the dye was confined to the cytoplasm (see, Ma H-T, Patterson R L. van Rossum D B. Birnbaumer L, Mikoshiba K, Gill D L, “Requirement of the inositol trisphosphate receptor for activation of store-operated Ca^2+ channels”, Science, Vol. 287, pages 1647-1651, 2000). Ca^2+ measurements were made using a Leica DMI 6000B fluorescence microscope controlled by Slidebook Software. Fluorescence emission at 505 nm was monitored while alternating between 340 and 380 nm excitation wavelengths at a frequency of 0.67 Hz; intracellular Ca^2+ measurements are shown as 340/380 nm emission ratios obtained from groups (35-45) of single cells. Measurements shown are representative a minimum of three independent experiments.
# N-(3,4-dibromophenyl)propanamide]. Jurkat cells, a T cell line that is very sensitive to DCPA, was cultured with the indicated compounds, DCPA, DBPA, and ethanol (EtOH). CRAC channel activity was monitored using Fura-2 fluorescence using standard known techniques. Cells were incubated in each composition at 100 uM for 10 minutes prior to addition of the SERCA inhibitor thapsigargin (Tg) to induce SOCe. Decreased CRAC channel activity is clearly evident with DCPA and DBPA.
# Jurkat cells, a T cell line that is very sensitive to DCPA, was cultured with the indicated compositions of the present invention, namely, DNI, NM Propanil, and DNMNI. CRAC channel activity was monitored using Fura-2 fluorescence using standard known techniques. Cells were incubated in each composition at 100 uM for 10 minutes prior to addition of the SERCA inhibitor thapsigargin (Tg) to induce SOCe. Decreased CRAC channel activity is clearly evident with each of the compositions of the present invention. […] Each of the compositions of this invention achieve the results achieved with the known DCPA but without the burden of toxicity of DCPA that would accompany further metabolism of DCPA.
# CRAC channel [2] = target: T1, CRAC channel; test: CRAC channel activity as measured by intracellular calcium influx; details: for effect on intracellular calcium influx and toxicity in relation to CRAC channel inhibition: DCPA metabolites
# Source text: The metabolism of DCPA by acylamidase produces DCA as mentioned above. DCA is then metabolized to N—OH-DCA and 6-OH-DCA. Both N—OH-DCA and 6-OH-DCA contribute to the systemic toxicity associated with in vivo administration of DCPA. […] Thus, the CRAC channel inhibitory activity of DCPA is not attributable to any of these toxic metabolites. Given that the CRAC channel inhibition associated with DCPA was not due to the more toxic metabolites, the present invention discloses haloanilide compositions of Formula I, and salts thereof that are not metabolized to DCA but that have similar CRAC channel inhibitory qualities of DCPA:
# [drawing 7] wherein X is either chlorine or bromine, Y is either hydrogen or an alkyl group having a carbon chain length from 1 to 5 carbon atoms, and R is an alkyl group having a carbon chain length from 1 to 5 carbon atoms, except wherein X is not chlorine when Y is hydrogen and R is an ethyl group. Synthesis routes for N-(3,4-dibromophenyl)propanamide [also referred to as “DBPA” or “N-(3,4-bibromophenyl)propionamide”], N-(3,4-dichlorophenyl)-N-methylpropanamide [also referred to as “N-Methyl Propanil”; or “N-Methyl-DCPA”; or “NMP”; or “NM Propanil”; or “N-(3,4-dichlorophenyl)-N-methylpropionamide”; or “N,N-Methyl, Propyl-CA” (CA=carboxamide)], 3,4-dichloro-N-methyl-N-isobutyramide [also referred to as “N-(3,4-dichlorophenyl)-N,2-dimethylpropanamide”; or “DNMI”], N-(3,4-dichlorophenyl)-2-dimethylpropanamide, N-(3,4-dichlorophenyl)isobutyramide [also referred to as “DNI” or “N-Isobutyl-CA” (CA=carboxamide)], and N-(3,4-dichlorophenyl)-N-methylisobutyramide [also referred to as “N,N-Me, Isobutyl-CA” (CA=carboxamide)]. Each of the haloanilide compositions of this invention have undergone in vitro toxicity testing on Jurkat cells—this is a T cell line that is sensitivity to toxic effects and thus, was used to determine the effect of the compounds on viability. Each of the compositions of Formula I are capable of inhibiting CRAC channel activity as measured by intracellular calcium influx. […] FIGS. 4 and 5 show chemical structures of preferred haloanilide compositions of this invention.
# [3] = tested on: Store-Operated Calcium Entry (SOCE); test: Store-Operated Calcium Entry (SOCE) inhibition dose response (FIG. 10)
# [4] = target: T2, STIM I/Orai I interaction (Homo sapiens, UniProt Q13586); test: 2-APB-induced STIM I ct translocation to plasma membrane; details: 2-APB 50 μM, as early as 5 seconds
# T2 construct: the cytosolic fragment of STIM I (STIM 1 ct); expressed in transfected cells
# Procedure: HEK293 cells, maintained in DMEM with 10% FBS, were transfected with YFP-STIM I using Lipofectamine 2000 (Invitrogen, Carlsbad, Calif.) for 5 h (37° C.; 5% CO2) followed by a 24-h recovery. Cells were placed in 140 mM NaCl, 5 mM KCl, 1 mM MgCl2, 10 mM glucose, 15 mM HEPES, 0.1% BSA, 2 mM CaCl2 and analyzed by confocal microscopy for STIM I puncta formation using a Nikon phase-fluorescence microscope with CCD detectors (Diagnostic instruments, Sterling Heights, Mich.). Phase or transmitted light microscopy used 10-40× objectives and red, green, and blue filters to assemble color images. Fluorescence images used 1.4 NA 40× oil objectives. Red fluorescence used excitation at 530-560 nm, a 575 nm dichroic minor, and 580-650 nm emission filter. Transfection data were analyzed using Nikon NIS Elements Imaging Software. The effect of DCPA on STIM I/Orai I association was determined in wild-type HEK293 cells transfected with STIM I-YFP as described in Wang Y, Deng X, Zhou Y, Hendron E, Mancarelia S, Ritchie M F, Tang X D, Baba Y, Kurosaki T, Mori Y, Soboloff J, Gill DL, “STIM protein coupling in the activation of Orai channels”, Proc Natl Acad Sci USA, Vol. 106, pages 7391-7396, 2009. Experiments were performed on a Leica DMI 6000B fluorescence microscope controlled by Slidebook Software (Intelligent Imaging Innovations, Denver, Colo.).
# [5] = tested on: human monocytes differentiating into osteoclasts; test: Human osteoclast differentiation in vitro (multinucleation, TRAP); details: 10 and 100 μM, 8 days after RANKL
# Procedure: Human monocytes were isolated from normal buffy coat cells (60-80 ml) obtained with approval of institutional review boards by separation from donor blood, the white-cell depleted blood retained for clinical use. Human monocyte culture and differentiation were as reported (see, Yaroslayskly B B, Zhang Y, Kalla S E, Garcia P V, Sharrow A C, Li Y, Zaidi M, Wu C, Blair H C, “NO-dependent osteoclast motility: Reliance on cGMP-dependent protein kinase I and VASP”, J Cell Sci I, Vol. 18, pages 5479-5487, 2005). Briefly, human monocytes cells were isolated from buffy coat on ficoll lymphocyte separation media and cultured at ˜6×10^5 cells per cm^2 in monocyte maintenance medium, Dulbecco's modified essential medium (DMEM) with 20 ng/ml of human m-CSF and 10% FBS, for 24 hours (h). After 24 h in culture, the medium was changed to osteoclast differentiation medium containing in addition of human 50 ng/ml of RANKL, with the additional inhibitors or activators as specified in results. Human osteoclast cultures were generally maintained for a minimum of 7 days before analysis, or longer times as specified in results.
# The effect of DCPA on human osteoclast differentiation 8 days after addition of RANKL was evaluated.
# T1 sequence (Q13586 23-685): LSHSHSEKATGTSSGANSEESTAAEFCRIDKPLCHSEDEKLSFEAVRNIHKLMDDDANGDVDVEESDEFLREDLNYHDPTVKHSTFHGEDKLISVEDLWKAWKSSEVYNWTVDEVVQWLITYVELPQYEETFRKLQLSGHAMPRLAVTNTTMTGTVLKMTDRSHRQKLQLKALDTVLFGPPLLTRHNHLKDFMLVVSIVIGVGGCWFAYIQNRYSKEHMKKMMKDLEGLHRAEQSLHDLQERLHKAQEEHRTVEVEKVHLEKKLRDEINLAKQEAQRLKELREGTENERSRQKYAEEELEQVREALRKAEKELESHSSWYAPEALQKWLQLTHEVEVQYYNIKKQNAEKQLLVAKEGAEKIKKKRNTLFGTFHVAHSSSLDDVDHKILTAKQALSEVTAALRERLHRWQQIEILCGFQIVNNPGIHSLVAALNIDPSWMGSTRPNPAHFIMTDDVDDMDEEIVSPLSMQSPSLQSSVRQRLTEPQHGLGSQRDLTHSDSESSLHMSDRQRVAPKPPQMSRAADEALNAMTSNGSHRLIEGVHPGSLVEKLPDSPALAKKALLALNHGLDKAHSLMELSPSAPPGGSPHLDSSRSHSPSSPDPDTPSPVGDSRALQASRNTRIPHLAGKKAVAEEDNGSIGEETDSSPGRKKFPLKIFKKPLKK
# T2 sequence (Q13586 235-685 limits assumed): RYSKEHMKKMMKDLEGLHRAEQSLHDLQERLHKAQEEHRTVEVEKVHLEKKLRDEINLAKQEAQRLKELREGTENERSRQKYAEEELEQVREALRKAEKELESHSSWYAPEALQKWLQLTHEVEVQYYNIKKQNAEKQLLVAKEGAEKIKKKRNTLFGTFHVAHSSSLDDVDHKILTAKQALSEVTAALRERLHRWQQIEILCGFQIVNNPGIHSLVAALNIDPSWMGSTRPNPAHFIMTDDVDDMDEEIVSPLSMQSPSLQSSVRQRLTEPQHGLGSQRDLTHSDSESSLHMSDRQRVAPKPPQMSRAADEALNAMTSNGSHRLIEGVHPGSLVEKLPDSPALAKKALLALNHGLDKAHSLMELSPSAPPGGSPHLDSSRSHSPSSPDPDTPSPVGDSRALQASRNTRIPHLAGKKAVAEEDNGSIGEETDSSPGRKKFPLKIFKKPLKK
SMILES,CRAC channel activity (CRAC channel [1]),effect on intracellular calcium influx and toxicity in relation to CRAC channel inhibition (CRAC channel [2]),also measured
ONc1ccc(Cl)c(Cl)c1 [N—OH-DCA],–,not associated with CRAC channel inhibition,–
Nc1cc(Cl)c(Cl)cc1O [6-OH-DCA],–,not associated with CRAC channel inhibition,–
"NCCOB(c1ccccc1)c1ccccc1 [2-APB, 2-aminoethoxydiphenylborate]",–,–,translocation of STIM I ct towards the PM [4]: significant translocation
"CCC(=O)Nc1ccc(F)c(F)c1 [DFPA, 3,4-difluoropropioanilide]",–,–,number of multinucleated cells [5]: no significant effect
"Nc1ccc(Cl)c(Cl)c1 [DCA, dichloroaniline]",–,not associated with CRAC channel inhibition,–

# More lines, main results first:
CRAC channel activity (CRAC channel [1]),SMILES,effect on intracellular calcium influx and toxicity in relation to CRAC channel inhibition (CRAC channel [2]),also measured
Decreased,"CC(C)C(=O)N(C)c1ccc(Cl)c(Cl)c1 [DNMNI, N-(3,4-dichlorophenyl)-N-methylisobutyramide]",–,–
Decreased,"CCC(=O)N(C)c1ccc(Cl)c(Cl)c1 [NMP, N-(3,4-dichlorophenyl)-N-methylpropanamide]",–,"IC50 ([3]; FIG. 10B): 104 µM; dose response compared with known DCPA ([3]; doses 3 μM to 1 mM, FIG. 10A): at least equal; inhibition of CRAC channel activity as measured by intracellular calcium influx (CRAC channel [2]): effective at lower concentrations"
Decreased,"CC(C)C(=O)Nc1ccc(Cl)c(Cl)c1 [DNI, N-(3,4-dichlorophenyl)isobutyramide]",–,–
Decreased,"CCC(=O)Nc1ccc(Br)c(Br)c1 [DBPA, N-(3,4-dibromophenyl)propanamide]",–,–
